Structures can show the parent of a compound that is named as a salt.
Experiment: in vitro
Details: human, hek293t cells

Row | Compound | viability at 48 h, 25 µM [%]
1 | CC(C)NC(=O)C(C#N)=Cc1cc(F)ccc1F [8-C08, 2-cyano-3-(2,5-difluorophenyl)-N-(propan-2-yl)prop-2-enamide] | 138
2 | C=CC(=O)NCc1ccnn1C1CCCC1 [3-H21, N-[(1-cyclopentyl-1H-pyrazol-5-yl)methyl]prop-2-enamide] | 74.5
3 | C=CC(=O)N1CCC(C)C1 (centres unmarked) [2-H17, 1-(3-methylpyrrolidin-1-yl)prop-2-en-1-one] | 71.5
4 | C=CC(=O)N1CCCC(c2nc(N(C)C)no2)C1 (centres unmarked) [3-A13, 1-{3-[3-(dimethylamino)-1,2,4-oxadiazol-5-yl]piperidin-1-yl}prop-2-en-1-one] | 29.9
5 | CCCNC(=O)C(C#N)=Cc1cnc2c(C)cccn12 [9-N14, 2-cyano-3-{8-methylimidazo[1,2-a]pyridin-3-yl}-N-propylprop-2-enamide] | 120
6 | N#CC(=Cc1ccc(SC(F)(F)F)cc1)C(=O)NC1CC1 [9-C14, 2-cyano-N-cyclopropyl-3-{4-[(trifluoromethyl)sulfanyl]phenyl}prop-2-enamide] | 55.5
7 | CCN(C(=O)CCl)C1CCCCC1 [5-D11, 2-chloro-N-cyclohexyl-N-ethylacetamide] | 0.918
8 | COc1ccc(NC(C)=O)cc1NC(=O)C(C)Cl (centres unmarked) [4-M08, 2-chloro-N-(5-acetamido-2-methoxyphenyl)propanamide] | 84.8
9 | O=C(CCl)c1c[nH]c2ccc(F)cc12 [10-O11, 2-chloro-1-(5-fluoro-1H-indol-3-yl)ethan-1-one] | 0.58
10 | O=C(CCl)N1N=C(c2cccs2)CC1c1ccccc1O (centres unmarked) [4-K20, 2-chloro-1-[5-(2-hydroxyphenyl)-3-(thiophen-2-yl)-4,5-dihydro-1H-pyrazol-1-yl]ethan-1-one] | -0.22
11 | Cc1ccc(C2CS(=O)(=O)CCN2C(=O)C(C)Cl)o1 (centres unmarked) [6-D19, 4-(2-chloropropanoyl)-3-(5-methylfuran-2-yl)-1lambda6-thiomorpholine-1,1-dione] | 107
12 | O=C(CCl)Nc1cc(Cl)cc(Cl)c1 [4-K09, 2-chloro-N-(3,5-dichlorophenyl)acetamide] | 1.41
13 | C=CC(=O)N(Cc1cn(C)nc1CC)C1CCCCCC1 [1-H09, N-cycloheptyl-N-[(3-ethyl-1-methyl-1H-pyrazol-4-yl)methyl]prop-2-enamide] | 84.9
14 | C=CCNC(=O)C(C#N)=Cc1cnn(-c2ccc(Cl)cc2)c1 [9-M16, 3-[1-(4-chlorophenyl)-1H-pyrazol-4-yl]-2-cyano-N-(prop-2-en-1-yl)prop-2-enamide] | 115
15 | O=C(CCl)N1CCN(CC=Cc2ccccc2)CC1 [4-F16, 2-chloro-1-[4-(3-phenylprop-2-en-1-yl)piperazin-1-yl]ethan-1-one hydrochloride] | 0.223
16 | CC(Cl)C(=O)Nc1ccccc1OC(F)F (centres unmarked) [6-J08, 2-chloro-N-[2-(difluoromethoxy)phenyl]propanamide] | 115
17 | O=C(CCl)N1CCCC1c1nc(Cc2ccc(F)cc2)no1 (centres unmarked) [5-M10, 2-chloro-1-(2-{3-[(4-fluorophenyl)methyl]-1,2,4-oxadiazol-5-yl}pyrrolidin-1-yl)ethan-1-one] | 0.55
18 | Cn1c(-c2ccccc2)c(C(=O)CCl)c2ccccc21 [10-N04, 2-chloro-1-(1-methyl-2-phenyl-1H-indol-3-yl)ethan-1-one] | 1.67
19 | C=CC(=O)NC(c1ccc(F)cc1)C1CC1 (centres unmarked) [3-H20, N-[cyclopropyl(4-fluorophenyl)methyl]prop-2-enamide] | 89.2
20 | C=CC(=O)Nc1ccc(O)c(C(=O)O)c1 [1-G06, 2-hydroxy-5-(prop-2-enamido)benzoic acid] | 70.3
21 | N#CC(=Cc1ccc(Cl)cc1Cl)C(=O)Nc1nccs1 [9-H19, 2-cyano-3-(2,4-dichlorophenyl)-N-(1,3-thiazol-2-yl)prop-2-enamide] | 121
22 | C=CC(=O)NCc1ccc(C(=O)N2CCN(c3nc(C)n[nH]3)CC2)cc1 [2-F22, N-({4-[4-(3-methyl-1H-1,2,4-triazol-5-yl)piperazine-1-carbonyl]phenyl}methyl)prop-2-enamide] | 78.3
23 | C=CC(=O)N1CCC(C(=O)NCc2nccn2-c2ccccc2)CC1 [3-B03, N-[(1-phenyl-1H-imidazol-2-yl)methyl]-1-(prop-2-enoyl)piperidine-4-carboxamide] | 86.5
24 | C=CC(=O)Nc1cccc(C(=O)C(C)(C)C)c1 [2-I18, N-[3-(2,2-dimethylpropanoyl)phenyl]prop-2-enamide] | 105
25 | CC(Cl)C(=O)NCc1csc2ccccc12 (centres unmarked) [7-C11, N-[(1-benzothiophen-3-yl)methyl]-2-chloropropanamide] | 81.9
26 | Cc1[nH]c2ccccc2c1C=C(C#N)C(=O)NCc1ccccc1 [8-D16, N-benzyl-2-cyano-3-(2-methyl-1H-indol-3-yl)prop-2-enamide] | 96.6
27 | CC(Cl)C(=O)N1CCCc2c1ccc1c2ncn1C (centres unmarked) [6-B19, 2-chloro-1-{3-methyl-3H,6H,7H,8H,9H-imidazo[4,5-f]quinolin-6-yl}propan-1-one] | 90.9

Row | Compound | viability at 48 h, 25 µM [%]
28 | O=C(CCl)NC1CN(c2ccc(C(F)(F)F)cc2)C1 [7-J06, 2-chloro-N-{1-[4-(trifluoromethyl)phenyl]azetidin-3-yl}acetamide] | 0.892
29 | CC(Cl)C(=O)N(C)Cc1cn(C)nc1C(F)(F)F (centres unmarked) [7-M04, 2-chloro-N-methyl-N-{[1-methyl-3-(trifluoromethyl)-1H-pyrazol-4-yl]methyl}propanamide] | 91.6
30 | COc1cc(NC(=O)CCl)c(C)cc1[N+](=O)[O-] [4-M09, 2-chloro-N-(5-methoxy-2-methyl-4-nitrophenyl)acetamide] | 1.27
31 | CCN(CC)S(=O)(=O)c1ccc(NC(=O)CCl)cc1 [4-K07, 2-chloro-N-[4-(diethylsulfamoyl)phenyl]acetamide] | 0.364
32 | CC(Cl)C(=O)N(Cc1ccccc1)Cc1ccccc1 (centres unmarked) [5-K19, N,N-dibenzyl-2-chloropropanamide] | 82.1
33 | CC(Cl)C(=O)NCc1cc(C(F)F)nn1C (centres unmarked) [6-H14, 2-chloro-N-{[3-(difluoromethyl)-1-methyl-1H-pyrazol-5-yl]methyl}propanamide] | 108
34 | CCOc1cc(C=C(C#N)C(=O)Nc2cccc(C)c2)ccc1O [9-G06, 2-cyano-3-(3-ethoxy-4-hydroxyphenyl)-N-(3-methylphenyl)prop-2-enamide] | 105
35 | N#CC(=Cc1cc2ccccc2o1)C(=O)NCc1ccco1 [9-O08, 3-(1-benzofuran-2-yl)-2-cyano-N-[(furan-2-yl)methyl]prop-2-enamide] | 114
36 | Cc1ccc(F)c(S(=O)(=O)NCCNC(=O)CCl)c1 [7-P12, 2-chloro-N-[2-(2-fluoro-5-methylbenzenesulfonamido)ethyl]acetamide] | 1.05
37 | COc1ccc(C=C(C#N)C(=O)NCc2ccccc2)cc1 [8-K19, N-benzyl-2-cyano-3-(4-methoxyphenyl)prop-2-enamide] | 77.3
38 | Cc1ccsc1-c1nnc(NC(=O)CCl)o1 [6-K03, 2-chloro-N-[5-(3-methylthiophen-2-yl)-1,3,4-oxadiazol-2-yl]acetamide] | 72.7
39 | CC(Cl)C(=O)N(c1cccc(C#N)c1)C1CCC1 (centres unmarked) [6-N22, 2-chloro-N-(3-cyanophenyl)-N-cyclobutylpropanamide] | 90.1
40 | COC(=O)c1cccc(C(=O)CCl)c1 [10-I11, methyl 3-(2-chloroacetyl)benzoate] | 1.87
41 | N#CC(=Cc1ccc(O)cc1)C(=O)NCc1ccco1 [9-N10, 2-cyano-N-[(furan-2-yl)methyl]-3-(4-hydroxyphenyl)prop-2-enamide] | 103
42 | O=C(CCl)NCC1(c2ccc3c(c2)OCCO3)CCCC1 [4-I11, 2-chloro-N-{[1-(2,3-dihydro-1,4-benzodioxin-6-yl)cyclopentyl]methyl}acetamide] | 0.867
43 | CC(Cl)C(=O)N1CCCC1c1nc(-c2ccccc2)n[nH]1 (centres unmarked) [7-I09, 2-chloro-1-[2-(3-phenyl-1H-1,2,4-triazol-5-yl)pyrrolidin-1-yl]propan-1-one] | 86.8
44 | CC(Cl)C(=O)NC(C)c1cnn(CC2CCC2)c1 (centres unmarked) [5-L15, 2-chloro-N-{1-[1-(cyclobutylmethyl)-1H-pyrazol-4-yl]ethyl}propanamide] | 108
45 | CC(Cl)C(=O)NC(C)c1ccc(C(F)(F)F)nc1Cl (centres unmarked) [7-G09, 2-chloro-N-{1-[2-chloro-6-(trifluoromethyl)pyridin-3-yl]ethyl}propanamide] | 83.5
46 | COc1cc(C=C(C#N)C(=O)NC2CC2)cc(OC)c1O [9-O19, 2-cyano-N-cyclopropyl-3-(4-hydroxy-3,5-dimethoxyphenyl)prop-2-enamide] | 124
47 | C=CC(=O)NCCN1CCn2nccc2C1 [3-F21, N-(2-{4H,5H,6H,7H-pyrazolo[1,5-a]pyrazin-5-yl}ethyl)prop-2-enamide] | 72.8
48 | Cc1ccc(NC(=O)C(C#N)=Cc2ccsc2)c(C)c1 [9-M19, 2-cyano-N-(2,4-dimethylphenyl)-3-(thiophen-3-yl)prop-2-enamide] | 102
49 | N#CC(=Cc1ccc(OC(F)F)cc1)C(=O)Nc1cccnc1 [9-K04, 2-cyano-3-[4-(difluoromethoxy)phenyl]-N-(pyridin-3-yl)prop-2-enamide] | 115
50 | C=CC(=O)Nc1ccc(N2CCN(CC)CC2)cc1 [1-D12, N-[4-(4-ethylpiperazin-1-yl)phenyl]prop-2-enamide] | 77.2
51 | C=CC(=O)NC(C)Cn1cncn1 (centres unmarked) [3-C11, N-[1-(1H-1,2,4-triazol-1-yl)propan-2-yl]prop-2-enamide] | 37.9
52 | Cc1ccc(N(CCC#N)C(=O)CCl)cc1 [4-M15, 2-chloro-N-(2-cyanoethyl)-N-(4-methylphenyl)acetamide] | 1.24
53 | C=CC(=O)N1CCC(C(=O)N[C@H]2CC[C@@H]2O)(c2ccccc2)CC1 (racemic) [3-G08, rac-N-[(1R,2R)-2-hydroxycyclobutyl]-4-phenyl-1-(prop-2-enoyl)piperidine-4-carboxamide] | 104
